Source: US20150313228A1, “SYNERGISTIC HERBICIDAL COMBINATIONS AND METHODS OF USE” (priority 2012, published 2015)
“And” between values parts separate entries of the source, which are not always exact repeats. Equal values may be shown once.

Test system: broad-leaf and grass weed species
Test: Field testing of pre-emergence application of dicamba and acetochlor in Argentina and/or South Africa (Example 10);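 also: percent weed control in field trials, rated at 14 days (early) and 28 days (late) after treatment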
Conditions: for percent control X (ACETOCHLOR ALONE): early rating (14 day); for X (acetochlor alone): late rating (28 day)

CCOCN(C(=O)CCl)c1c(C)cccc1CC [Acetochlor, 2-chloro-N-(ethoxymethyl)-6′-ethyl-o-acetotoluidide] was tested, and the “percent control X (ACETOCHLOR ALONE)” value (AMADE, 630 g/ha) was 96.7%, the “X (acetochlor alone)” value (AMADE, 630 g/ha) was 57.1% and the “percent control X (ACETOCHLOR ALONE)” value (AMADE, 1260 g/ha) was 99.4%. The “X (acetochlor alone)” value (AMADE, 1260 g/ha) was 69.4%, the “percent control X (ACETOCHLOR ALONE)” value (AMAQU, 630 g/ha) was 64.3% and the “X (acetochlor alone)” value (AMAQU, 630 g/ha) was 48.8%. The “percent control X (ACETOCHLOR ALONE)” value (AMAQU, 1260 g/ha) was 81.4%, the “X (acetochlor alone)” value (AMAQU, 1260 g/ha) was 70.0% and the “percent control X (ACETOCHLOR ALONE)” value (ANOCR, 630 g/ha) was 47.0%. The “X (acetochlor alone)” value (ANOCR, 630 g/ha) was 31.6%, the “percent control X (ACETOCHLOR ALONE)” value (ANOCR, 1260 g/ha) was 59.5% and the “X (acetochlor alone)” value (ANOCR, 1260 g/ha) was 45.2%. The “percent control X (ACETOCHLOR ALONE)” value (BIDPI, 630 g/ha) was 17.5%, the “X (acetochlor alone)” value (BIDPI, 630 g/ha) was 0.0% and the “percent control X (ACETOCHLOR ALONE)” value (BIDPI, 1260 g/ha) was 47.5%. For the same compound, the “X (acetochlor alone)” value (BIDPI, 1260 g/ha) was 27.5%, the “X (acetochlor alone)” value (BRAER, 630 g/ha) was 47.5% and the “X (acetochlor alone)” value (BRAER, 1260 g/ha) was 65.0%. For the same compound, the “percent control X (ACETOCHLOR ALONE)” value (CHEAL, 630 g/ha) was 46.7%, the “X (acetochlor alone)” value (CHEAL, 630 g/ha) was 80.3% and the “percent control X (ACETOCHLOR ALONE)” value (CHEAL, 1260 g/ha) was 50.0%. For the same compound, the “X (acetochlor alone)” value (CHEAL, 1260 g/ha) was 77.0%, the “percent control X (ACETOCHLOR ALONE)” value (CHRGA, 630 g/ha) was 0.0% and the “X (acetochlor alone)” value (CHRGA, 630 g/ha) was 0.0%. For the same compound, the “percent control X (ACETOCHLOR ALONE)” value (CHRGA, 1260 g/ha) was 86.0%, the “X (acetochlor alone)” value (CHRGA, 1260 g/ha) was 10.0% and the “percent control X (ACETOCHLOR ALONE)” value (COMBE, 630 g/ha) was 0.0%. The “X (acetochlor alone)” value (COMBE, 630 g/ha) was 0.0%, the “percent control X (ACETOCHLOR ALONE)” value (COMBE, 1260 g/ha) was 12.5% and the “X (acetochlor alone)” value (COMBE, 1260 g/ha) was 0.0%. For the same compound, the “percent control X (ACETOCHLOR ALONE)” value (CONFA, 630 g/ha) was 10.0%, the “X (acetochlor alone)” value (CONFA, 630 g/ha) was 0.0% and the “percent control X (ACETOCHLOR ALONE)” value (CONFA, 1260 g/ha) was 77.5%. For the same compound, the “X (acetochlor alone)” value (CONFA, 1260 g/ha) was 12.5%, the “percent control X (ACETOCHLOR ALONE)” value (CYNDA, 630 g/ha) was 30.0% and the “percent control X (ACETOCHLOR ALONE)” value (CYNDA, 1260 g/ha) was 49.2%. The “percent control X (ACETOCHLOR ALONE)” value (CYPES, 630 g/ha) was 0.0%, the “X (acetochlor alone)” value (CYPES, 630 g/ha) was 26.3% and the “percent control X (ACETOCHLOR ALONE)” value (CYPES, 1260 g/ha) was 0.0%. For the same compound, the “X (acetochlor alone)” value (CYPES, 1260 g/ha) was 33.3%, the “percent control X (ACETOCHLOR ALONE)” value (CYPRO, 630 g/ha) was 44.1% and the “X (acetochlor alone)” value (CYPRO, 630 g/ha) was 17.1%. The “percent control X (ACETOCHLOR ALONE)” value (CYPRO, 1260 g/ha) was 51.0%, the “X (acetochlor alone)” value (CYPRO, 1260 g/ha) was 25.8% and the “percent control X (ACETOCHLOR ALONE)” value (DATFE, 630 g/ha) was 62.2%. For the same compound, the “X (acetochlor alone)” value (DATFE, 630 g/ha) was 44.5%, the “percent control X (ACETOCHLOR ALONE)” value (DATFE, 1260 g/ha) was 72.3% and the “X (acetochlor alone)” value (DATFE, 1260 g/ha) was 58.5%. The “percent control X (ACETOCHLOR ALONE)” value (DIGER, 630 g/ha) was 0.0%, the “X (acetochlor alone)” value (DIGER, 630 g/ha) was 0.0% and the “percent control X (ACETOCHLOR ALONE)” value (DIGER, 1260 g/ha) was 86.0%. The “X (acetochlor alone)” value (DIGER, 1260 g/ha) was 12.5% and 12.4%, the “percent control X (ACETOCHLOR ALONE)” value (DIGSA, 630 g/ha) was 63.1% and the “X (acetochlor alone)” value (DIGSA, 630 g/ha) was 51.3%. For the same compound, the “percent control X (ACETOCHLOR ALONE)” value (DIGSA, 1260 g/ha) was 72.1%, the “X (acetochlor alone)” value (DIGSA, 1260 g/ha) was 59.2% and the “X (acetochlor alone)” value (DTTAE, 630 g/ha) was 0.0%. For the same compound, the “X (acetochlor alone)” value (DTTAE, 1260 g/ha) was 10.0%, the “percent control X (ACETOCHLOR ALONE)” value (ELEAF, 630 g/ha) was 88.3% and the “X (acetochlor alone)” value (ELEAF, 630 g/ha) was 20.3%. For the same compound, the “percent control X (ACETOCHLOR ALONE)” value (ELEAF, 1260 g/ha) was 85.9%, the “X (acetochlor alone)” value (ELEAF, 1260 g/ha) was 28.3% and the “percent control X (ACETOCHLOR ALONE)” value (HIBCA, 630 g/ha) was 55.0%. The “X (acetochlor alone)” value (HIBCA, 630 g/ha) was 37.5%, the “percent control X (ACETOCHLOR ALONE)” value (HIBCA, 1260 g/ha) was 89.5% and the “X (acetochlor alone)” value (HIBCA, 1260 g/ha) was 96.5%. The “X (acetochlor alone)” value (IPOBA, 630 g/ha) was 0.0%, the “X (acetochlor alone)” value (IPOBA, 1260 g/ha) was 0.0% and the “percent control X (ACETOCHLOR ALONE)” value (IPOPD, 630 g/ha) was 27.5%. The “X (acetochlor alone)” value (IPOPD, 630 g/ha) was 21.2%, the “percent control X (ACETOCHLOR ALONE)” value (IPOPD, 1260 g/ha) was 71.3% and the “X (acetochlor alone)” value (IPOPD, 1260 g/ha) was 63.0%. For the same compound, the “percent control X (ACETOCHLOR ALONE)” value (OVERALL, 630 g/ha) was 49.8%, the “percent control X (ACETOCHLOR ALONE)” value (OVERALL, 1260 g/ha) was 64.2% and the “X (acetochlor alone)” value (Overall, 630 g/ha) was 37.8%. The “X (acetochlor alone)” value (Overall, 1260 g/ha) was 50.8%, the “percent control X (ACETOCHLOR ALONE)” value (PERCENT WEED FREE, 1260 g/ha) was 75.5% and the “percent control X (ACETOCHLOR ALONE)” value (POROL, 630 g/ha) was 38.6%. For the same compound, the “X (acetochlor alone)” value (POROL, 630 g/ha) was 26.7%, the “percent control X (ACETOCHLOR ALONE)” value (POROL, 1260 g/ha) was 47.5% and the “X (acetochlor alone)” value (POROL, 1260 g/ha) was 37.8%. The “X (acetochlor alone)” value (Percent Weed Free, 630 g/ha) was 53.2%, the “X (acetochlor alone)” value (Percent Weed Free, 1260 g/ha) was 63.8% and the “percent control X (ACETOCHLOR ALONE)” value (RCHBR, 630 g/ha) was 57.0%. For the same compound, the “X (acetochlor alone)” value (RCHBR, 630 g/ha) was 22.5%, the “percent control X (ACETOCHLOR ALONE)” value (RCHBR, 1260 g/ha) was 87.7% and the “X (acetochlor alone)” value (RCHBR, 1260 g/ha) was 67.4%. The “percent control X (ACETOCHLOR ALONE)” value (TAGMI, 630 g/ha) was 89.9%, the “X (acetochlor alone)” value (TAGMI, 630 g/ha) was 45.8% and the “percent control X (ACETOCHLOR ALONE)” value (TAGMI, 1260 g/ha) was 95.3%. For the same compound, the “X (acetochlor alone)” value (TAGMI, 1260 g/ha) was 65.0%, the “percent control X (ACETOCHLOR ALONE)” value (XANST, 630 g/ha) was 59.7% and the “X (acetochlor alone)” value (XANST, 630 g/ha) was 33.7%. The “percent control X (ACETOCHLOR ALONE)” value (XANST, 1260 g/ha) was 72.6% and the “X (acetochlor alone)” value (XANST, 1260 g/ha) was 37.7%.
